Like-named read-outs stand apart in the source and are kept apart here.
Assays:
[1] = test system: Influenza A H1N1\WSN\33; assay: microbe, parasite or virus in culture; format: cell-based, Influenza A virus; conditions: for EC50: read-out: EC50 by PRA
[2] = test system: MDCK cells; assay: MTT cytotoxicity assay in MDCK cells; format: cell-based, canine; conditions: 24 hours incubation, concentrations tested 0 to 250 μM, read-out: TC50 in MDCK cells
Procedure: (§1) Cytotoxicity of Compounds 1-10 was measured by the 3-(4,5-dimethylthiazol-2-yl)-2,5-diphenyltetrazolium bromide (MTT, Sigma-Aldrich, USA) assay. The assay was performed by seeding Vero cells or MDCK cells at 20,000 cells/well in a total volume of 100 μl EMEM with 10% FBS in flat bottomed 96-well microtitre plates. After 24 hours of incubation, cells were washed twice with PBS and then replenished with fresh EMEM before the addition of the compounds. After the addition of the compounds, the cells were further incubated at 37° C. with 5% CO2 for 24 hours. MTT was added to each well to a final concentration of 0.5 mg/ml. The plates were further incubated at 37° C. with 5% CO2 for 4 hours. At the end of the incubation period, 100 μl of 10% of lauryl sulfate (SDS) in 0.01M of hydrochloric acid (HCl) was added to each well to solubilize the cells. After overnight incubation, the plates were read at 570 nm with 640 nm as the reference wavelength. The median toxic concentration, TC50, which represents the concentration of a compound required to reduce the MTT reading by 50%, was estimated from the MTT data.

[3] = test system: Vero cells; assay: MTT cytotoxicity assay in Vero cells; format: cell-based; conditions: 24 hours incubation, concentrations tested 0 to 250 μM, read-out: TC50 in Vero cells
Procedure: as §1

[4] = MTT cytotoxicity assay in MDCK cells; format: cell-based, canine; conditions: dog, MDCK cells, 24 hours incubation, concentrations tested 0 to 250 μM, read-out: TC50 in MDCK cells
Procedure: as §1

[5] = MTT cytotoxicity assay in Vero cells; format: cell-based; conditions: African green monkey, Vero cells, 24 hours incubation, concentrations tested 0 to 250 μM, read-out: TC50 in Vero cells
Procedure: as §1

| Compound | EC50 [1] [µM] | CC50 [2] [µM] | CC50 [3] [µM] | Selective Index (SI) [1] | CC50 at 24 h [4] [µM] | CC50 at 24 h [5] [µM] | EC50 ([1]; Influenza A virus, MDCK, 72 h) [µM] |
| --- | --- | --- | --- | --- | --- | --- | --- |
| Cc1onc(-c2ccc(O)cc2)c1C(=O)N1CCN(c2ccc([N+](=O)[O-])cc2Cl)CC1 [Compound 1, [4-(2-chloro-4-nitro-pheny1)-piperazin-1-yl]-[3-(4-hydroxy-pheny1)-5-methylisoxazol-4-yl]-methanone] | 0.05 | > 250 | > 250 | – | – | – | – |
| Cc1onc(-c2ccc(N=[N+]=[N-])cc2)c1C(=O)N1CCN(c2ccc([N+](=O)[O-])cc2Cl)CC1 [Compound 4, [4-(2-chloro-4-nitro-pheny1)-piperazin-1-yl]-[3-(4-azido-pheny1)-5-methylisoxazol-4-yl]-methanone] | 0.25 | > 250 | > 250 | – | – | – | – |
| Cc1onc(-c2ccc(N)cc2)c1C(=O)N1CCN(c2ccc([N+](=O)[O-])cc2Cl)CC1 [Compound 3, [4-(2-chloro-4-nitro-phenyl)-piperazin-1-yl]-[3-(4-amino-phenyl)-methylisoxazol-4-yl]-methanone] | – | – | – | >4464 | > 250 | > 250 | – |
| Cc1onc(-c2ccccc2Cl)c1C(=O)N1CCN(c2ccc([N+](=O)[O-])cc2Cl)CC1C (centres unmarked) [Compound 6, [4-(2-chloro-4-nitro-phenyl)-2-methyl-piperazin-1-yl]-[3-(2-chloro-phenyl)-5-methyl-isoxazol-4-yl]-methanone] | – | – | – | >1190 | > 250 | > 250 | 0.21 |
| Cc1onc(-c2c(Cl)cccc2Cl)c1C(=O)N1CCN(c2ccc([N+](=O)[O-])cc2)CC1 [Compound 9, [4-(4-nitro-phenyl)-piperazin-1-yl]-[3-(2,6-dichloro-phenyl)-5-methyl-isoxazol-4-yl]-methanone] | – | – | – | >21 | > 250 | > 250 | 12 |
| Cc1onc(-c2ccccc2)c1C(=O)N1CCN(c2ccc([N+](=O)[O-])cc2Cl)CC1C (centres unmarked) [Compound 7, [4-(2-chloro-4-nitro-phenyl)-2-methyl-piperazin-1-yl]-[3-phenyl-5-methylisoxazol-4-yl]-methanone] | – | – | – | >313 | > 250 | > 250 | 0.8 |
| Cc1onc(-c2ccccc2Cl)c1C(=O)N1CCN(c2ccc([N+](=O)[O-])cc2Cl)CC1 [Compound 5, [4-(2-chloro-4-nitro-pheny1)-piperazin-1-yl]-[3-(2-chloro-phenyl)-5-methylisoxazol-4-yl]-methanone] | 0.04 | > 250 | > 250 | – | – | – | – |
| Cc1onc(-c2ccccc2)c1C(=O)N1CCN(c2ccc([N+](=O)[O-])cc2Cl)CC1 [Compound 2, [4-(2-chloro-4-nitro-phenyl)-piperazin-1-yl]-[3-phenyl-5-methyl-isoxazol-4-yl]-methanone] | – | – | – | >4167 | > 250 | > 250 | 0.06 |
| Cc1onc(-c2ccccc2Cl)c1C(=O)N1CCN(c2c(Cl)cccc2[N+](=O)[O-])CC1 [Compound 10, [4-(2-nitro-6-chloro-phenyl)-piperazin-1-yl]-[3-(2-chloro-phenyl)-5-methyl-isoxazol-4-yl]-methanone] | – | – | – | >10 | > 250 | > 250 | 25 |
| Cc1onc(-c2ccccc2Cl)c1C(=O)N1CCN(c2ccc([N+](=O)[O-])cc2)CC1 [Compound 8, [4-(4-nitro-pheny1)-piperazin-1-yl]-[3-(2-chloro-phenyl)-5-methyl-isoxazol-4-yl]-methanone] | 5.1 | > 250 | > 250 | – | – | – | – |
